Experimental data reported in US20150065499A1, “3-AMINOTHIENO[3,2-c]QUINOLINE DERIVATIVES, METHODS OF PREPARATION AND USES” (TEMPLE UNIVERSITY - OF THE COMMONWEALTH SYSTEM OF HIGHER …, priority 2012, published 2015).
Read-outs that look alike come from different tables or passages of the source.

Assays:
[1] = biological target: T1, Human PI3Kα (p110α/p85α) (Homo sapiens, UniProt P42336); experiment: PI3K isoform HTRF enzyme assay, PI3Kα; assay type: biochemical
T1 construct: N-terminal GST-tagged recombinant full-length human p110α; GST (N); host or cells: Baculovirus infected Sf9 cells
Method: (§1) The compound of Example 18, methyl 3-(4-fluorobenzamido)-7,8-dimethoxythieno[3,2-c]quinoline-2-carboxylate, was tested for ability to inhibit the four PI3K isoforms PI3Kα, PI3Kβ, PI3Kδ and PI3Kγ in a homogeneous time-resolved fluorescence (HTRF) enzyme assay.
(§2) The assay relies on the action of the aforesaid kinases on the substrate phosphatidylinositol (4,5)-bisphosphate (PIP2), providing the product phosphatidylinositol (3,4,5)-trisphosphate (PIP3). The PIP3 product is detected by displacement of biotin-PIP3 from an energy transfer complex consisting of Europium labeled anti-GST monoclonal antibody, a GST-tagged pleckstrin homology (PH) domain, biotinylated PIP3 and Streptavidin-Allophycocyanin (APC). Excitation of Europium in the complex results in an energy transfer to the APC and a fluorescent emission at 665 nm. The PIP3 product formed by PI 3-kinase(h) activity displaces biotin-PIP3 from the complex resulting in a loss of energy transfer and thus a decrease in signal. […]
(§3) The enzymes (PI3Kα, PI3Kβ, PI3Kδ or PI3Kγ) were delivered into the following kinase reaction buffer containing 10 μM PIP2 substrate: HEPES 50 mM (pH7.0), NaN3 0.02%, BSA 0.01%, Orthovanadate 0.1 mM, 1% DMSO. […] Homogeneous time-resolved fluorescence (HTRF) was measured (Ex=320 nm, ratio of Em=615 nm and Em=665 nm). […]

[2] = biological target: T2, Human PI3Kβ (p110β/p85α) (Homo sapiens, UniProt P42338); experiment: PI3K isoform HTRF enzyme assay, PI3Kβ; assay type: biochemical
T2 construct: N-terminal 6His-tagged recombinant full-length human p110β; 6His (N); host or cells: Baculovirus infected Sf21 cells
Method: as §1, §2, §3

[3] = biological target: T3, Human PI3Kδ (p110δ/p85α) (Homo sapiens, UniProt O00329); experiment: PI3K isoform HTRF enzyme assay, PI3Kδ; assay type: biochemical; details: for IC50: 10 μM PIP2, 10 μM ATP, HTRF, read-out: IC50 against PI3Kδ
T3 construct: N-terminal GST tagged recombinant full-length human p110δ; GST (N); host or cells: Baculovirus infected Sf9 cells
Method: as §1, §2, §3

[4] = test system: DU145 (prostate cancer); experiment: Cancer cell assay, DU145 tumor cells, viable cells after 96 hours; assay type: cell-based; details: Homo sapiens, DU-145, 96 hours after treatment, called IC50
Method: (§4) The effect of the compounds of the invention on tumor cells was determined by the assay described by Latham et al., Oncogene 12:827-837 (1996). Tumor cells K562 (chronic myelogenous leukemia; leukemia cell line +ve for Bcr-Abl) or DU145 (prostate cancer) were plated in 12-well dishes at a cell density of 2.5×10^4 cells well. The plated cells were treated 24 hours later with a compound of the invention dissolved in DMSO at multiple concentrations ranging from 0.01 μM to 100 μM. The plates were examined 96 hours later under an inverted microscope, Olympus CK-2 using a 10× objective, and compound activity was noted by physical observation. When necessary, the total number of viable cells was determined by trypsinizing the wells and counting the number of viable cells, as determined by trypan blue exclusion, using a hemacytometer.

[5] = biological target: T4, Human PI3Kγ (p120γ) (Homo sapiens, UniProt P48736); experiment: PI3K isoform HTRF enzyme assay, PI3Kγ; assay type: biochemical
T4 construct: His (N); host or cells: Baculovirus infected insect cells (printed 'SP)', probably a misprint of Sf9)
Method: as §1, §2, §3

[6] = test system: K562 (chronic myelogenous leukemia; leukemia cell line +ve for Bcr-Abl); experiment: Cancer cell assay, K562 tumor cells, viable cells after 96 hours; assay type: cell-based; details: Homo sapiens, 96 hours after treatment, called IC50
Method: as §4

T4 sequence (P48736 whole entry, canonical isoform): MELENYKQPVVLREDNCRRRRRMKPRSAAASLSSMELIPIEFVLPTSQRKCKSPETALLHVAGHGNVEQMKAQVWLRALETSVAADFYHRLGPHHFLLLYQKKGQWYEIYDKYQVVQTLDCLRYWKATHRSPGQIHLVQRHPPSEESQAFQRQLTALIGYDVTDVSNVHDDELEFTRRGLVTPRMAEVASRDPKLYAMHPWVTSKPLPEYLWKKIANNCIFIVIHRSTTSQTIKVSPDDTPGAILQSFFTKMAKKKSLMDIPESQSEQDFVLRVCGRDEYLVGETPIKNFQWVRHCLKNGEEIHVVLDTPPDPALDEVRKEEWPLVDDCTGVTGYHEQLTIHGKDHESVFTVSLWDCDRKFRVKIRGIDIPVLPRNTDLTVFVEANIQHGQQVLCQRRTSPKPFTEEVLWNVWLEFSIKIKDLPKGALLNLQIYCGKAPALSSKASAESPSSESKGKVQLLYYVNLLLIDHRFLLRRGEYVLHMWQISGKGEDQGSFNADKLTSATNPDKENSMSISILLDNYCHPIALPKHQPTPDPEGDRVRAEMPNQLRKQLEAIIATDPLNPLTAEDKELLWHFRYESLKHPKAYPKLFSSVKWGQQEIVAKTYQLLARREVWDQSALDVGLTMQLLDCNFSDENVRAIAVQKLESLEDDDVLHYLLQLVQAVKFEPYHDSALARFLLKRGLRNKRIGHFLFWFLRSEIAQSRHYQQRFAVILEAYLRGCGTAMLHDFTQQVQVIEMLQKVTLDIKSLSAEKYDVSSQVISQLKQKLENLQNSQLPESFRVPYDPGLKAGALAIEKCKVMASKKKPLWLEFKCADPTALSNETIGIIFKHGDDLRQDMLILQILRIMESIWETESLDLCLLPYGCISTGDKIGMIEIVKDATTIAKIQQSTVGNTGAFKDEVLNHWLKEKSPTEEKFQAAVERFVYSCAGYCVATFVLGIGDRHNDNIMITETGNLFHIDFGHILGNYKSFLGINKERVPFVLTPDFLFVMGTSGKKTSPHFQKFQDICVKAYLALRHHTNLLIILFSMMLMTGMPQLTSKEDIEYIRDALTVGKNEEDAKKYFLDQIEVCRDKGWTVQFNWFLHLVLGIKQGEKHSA
T3 sequence (O00329 whole entry, canonical isoform): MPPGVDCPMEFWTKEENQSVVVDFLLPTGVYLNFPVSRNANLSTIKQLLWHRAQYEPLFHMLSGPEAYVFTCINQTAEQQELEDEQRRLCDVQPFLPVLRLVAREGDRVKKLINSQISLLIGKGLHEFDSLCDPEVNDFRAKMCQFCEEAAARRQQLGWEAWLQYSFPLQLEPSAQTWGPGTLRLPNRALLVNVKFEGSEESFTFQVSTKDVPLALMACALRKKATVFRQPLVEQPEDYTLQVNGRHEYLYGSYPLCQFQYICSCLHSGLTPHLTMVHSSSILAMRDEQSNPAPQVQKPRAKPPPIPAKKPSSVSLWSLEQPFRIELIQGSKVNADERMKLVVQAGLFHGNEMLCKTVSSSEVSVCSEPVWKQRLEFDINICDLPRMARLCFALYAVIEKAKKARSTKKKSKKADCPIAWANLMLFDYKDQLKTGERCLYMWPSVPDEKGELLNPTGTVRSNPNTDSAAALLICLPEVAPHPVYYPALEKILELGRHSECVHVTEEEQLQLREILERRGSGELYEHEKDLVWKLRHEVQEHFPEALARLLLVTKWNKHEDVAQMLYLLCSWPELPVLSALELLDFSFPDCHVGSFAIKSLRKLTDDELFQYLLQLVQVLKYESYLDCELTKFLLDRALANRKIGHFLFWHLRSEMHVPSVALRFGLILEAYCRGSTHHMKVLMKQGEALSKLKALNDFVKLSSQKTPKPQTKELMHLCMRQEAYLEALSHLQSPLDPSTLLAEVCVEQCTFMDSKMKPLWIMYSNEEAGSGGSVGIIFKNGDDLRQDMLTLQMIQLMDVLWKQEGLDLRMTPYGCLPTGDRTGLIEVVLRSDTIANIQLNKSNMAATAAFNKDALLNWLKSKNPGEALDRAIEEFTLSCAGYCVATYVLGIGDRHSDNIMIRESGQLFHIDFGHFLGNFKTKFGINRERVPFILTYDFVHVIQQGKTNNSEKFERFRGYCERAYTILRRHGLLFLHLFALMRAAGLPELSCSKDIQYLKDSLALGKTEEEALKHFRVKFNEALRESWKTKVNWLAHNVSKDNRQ
T3 sequence (P27986 whole entry partner, canonical isoform): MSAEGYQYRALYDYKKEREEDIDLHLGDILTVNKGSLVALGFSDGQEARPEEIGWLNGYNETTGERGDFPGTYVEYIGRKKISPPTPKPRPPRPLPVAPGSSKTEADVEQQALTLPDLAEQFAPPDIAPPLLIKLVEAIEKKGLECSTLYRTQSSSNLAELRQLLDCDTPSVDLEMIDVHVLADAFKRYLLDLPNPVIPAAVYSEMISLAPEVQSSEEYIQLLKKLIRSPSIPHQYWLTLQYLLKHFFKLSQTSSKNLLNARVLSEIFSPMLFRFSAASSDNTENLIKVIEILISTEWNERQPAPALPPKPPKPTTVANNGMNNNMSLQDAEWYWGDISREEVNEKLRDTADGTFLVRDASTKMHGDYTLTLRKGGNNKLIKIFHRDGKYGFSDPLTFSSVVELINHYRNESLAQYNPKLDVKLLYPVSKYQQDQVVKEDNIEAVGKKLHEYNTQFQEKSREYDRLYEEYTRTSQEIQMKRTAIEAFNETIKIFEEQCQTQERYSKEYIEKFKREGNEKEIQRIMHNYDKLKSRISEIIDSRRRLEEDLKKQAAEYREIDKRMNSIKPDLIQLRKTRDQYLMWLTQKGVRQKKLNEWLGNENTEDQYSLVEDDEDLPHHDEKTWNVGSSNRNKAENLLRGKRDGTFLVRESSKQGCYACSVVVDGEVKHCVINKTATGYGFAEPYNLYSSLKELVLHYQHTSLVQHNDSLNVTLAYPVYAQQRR
T2 sequence (P42338 whole entry, canonical isoform): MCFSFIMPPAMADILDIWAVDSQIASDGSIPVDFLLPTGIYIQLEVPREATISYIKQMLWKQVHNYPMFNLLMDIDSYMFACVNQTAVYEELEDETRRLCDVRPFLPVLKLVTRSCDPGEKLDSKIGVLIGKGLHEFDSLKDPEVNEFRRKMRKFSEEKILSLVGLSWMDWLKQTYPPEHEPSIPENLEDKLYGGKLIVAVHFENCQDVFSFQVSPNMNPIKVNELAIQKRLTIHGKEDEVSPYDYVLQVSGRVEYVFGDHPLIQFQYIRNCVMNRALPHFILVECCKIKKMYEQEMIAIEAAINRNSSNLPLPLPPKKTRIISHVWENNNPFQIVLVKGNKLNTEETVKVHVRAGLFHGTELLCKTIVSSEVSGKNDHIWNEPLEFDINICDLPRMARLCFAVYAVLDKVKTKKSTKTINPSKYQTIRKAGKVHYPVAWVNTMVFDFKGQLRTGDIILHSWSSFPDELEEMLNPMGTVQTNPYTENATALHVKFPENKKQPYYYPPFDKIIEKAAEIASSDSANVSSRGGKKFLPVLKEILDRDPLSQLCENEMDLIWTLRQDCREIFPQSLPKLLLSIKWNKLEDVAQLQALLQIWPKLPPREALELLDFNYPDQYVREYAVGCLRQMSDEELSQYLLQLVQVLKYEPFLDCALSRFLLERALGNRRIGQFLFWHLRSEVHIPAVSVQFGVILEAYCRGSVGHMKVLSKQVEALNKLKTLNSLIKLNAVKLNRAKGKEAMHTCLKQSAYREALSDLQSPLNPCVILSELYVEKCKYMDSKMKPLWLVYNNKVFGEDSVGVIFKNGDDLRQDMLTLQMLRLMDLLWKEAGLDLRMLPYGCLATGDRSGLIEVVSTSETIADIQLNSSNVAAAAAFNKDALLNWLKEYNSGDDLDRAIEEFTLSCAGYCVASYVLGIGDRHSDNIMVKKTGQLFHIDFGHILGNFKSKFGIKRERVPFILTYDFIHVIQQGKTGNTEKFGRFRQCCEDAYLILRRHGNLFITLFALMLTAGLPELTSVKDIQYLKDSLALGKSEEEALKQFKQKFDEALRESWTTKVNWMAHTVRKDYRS
T2 sequence (P27986 whole entry partner, canonical isoform): as the sequence (P27986 whole entry partner, canonical isoform) above
T1 sequence (P42336 whole entry, canonical isoform): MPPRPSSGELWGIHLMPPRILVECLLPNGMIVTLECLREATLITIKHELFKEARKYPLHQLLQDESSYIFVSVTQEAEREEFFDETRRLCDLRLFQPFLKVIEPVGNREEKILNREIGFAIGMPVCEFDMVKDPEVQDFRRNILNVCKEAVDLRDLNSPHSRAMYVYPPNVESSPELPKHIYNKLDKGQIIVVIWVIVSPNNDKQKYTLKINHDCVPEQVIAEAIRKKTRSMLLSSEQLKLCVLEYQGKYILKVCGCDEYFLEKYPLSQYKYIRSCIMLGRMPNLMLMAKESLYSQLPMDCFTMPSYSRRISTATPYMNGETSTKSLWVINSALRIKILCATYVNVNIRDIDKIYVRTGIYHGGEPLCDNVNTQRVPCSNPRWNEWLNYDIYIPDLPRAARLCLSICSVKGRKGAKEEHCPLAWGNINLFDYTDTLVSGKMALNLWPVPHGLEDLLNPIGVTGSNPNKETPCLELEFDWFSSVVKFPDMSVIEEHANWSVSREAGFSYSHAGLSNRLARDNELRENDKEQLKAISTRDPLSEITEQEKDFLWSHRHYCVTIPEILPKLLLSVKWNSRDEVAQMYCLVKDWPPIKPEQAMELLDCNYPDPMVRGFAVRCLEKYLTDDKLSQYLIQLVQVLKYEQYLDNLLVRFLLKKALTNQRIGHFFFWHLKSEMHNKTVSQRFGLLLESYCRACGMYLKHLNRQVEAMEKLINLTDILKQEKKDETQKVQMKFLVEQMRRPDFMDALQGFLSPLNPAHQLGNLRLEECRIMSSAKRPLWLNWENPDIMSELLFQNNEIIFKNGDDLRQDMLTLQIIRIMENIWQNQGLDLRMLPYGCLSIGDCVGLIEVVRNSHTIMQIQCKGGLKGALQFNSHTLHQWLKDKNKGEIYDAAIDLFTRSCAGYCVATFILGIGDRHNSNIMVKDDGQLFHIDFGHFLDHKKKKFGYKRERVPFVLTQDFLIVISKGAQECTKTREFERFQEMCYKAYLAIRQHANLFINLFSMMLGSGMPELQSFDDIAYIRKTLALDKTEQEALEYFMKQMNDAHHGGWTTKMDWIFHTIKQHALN
T1 sequence (P27986 whole entry partner, canonical isoform): as the sequence (P27986 whole entry partner, canonical isoform) above

Structure (SMILES)	IC50 [4]	melting point	IC50 [6]	other results
COC(=O)c1sc2c(cnc3cc(OC)c(OC)cc32)c1NC(=O)c1ccc(F)cc1 [Example 18, Methyl 3-(4-fluorobenzamido)-7,8-dimethoxythieno[3,2-c]quinoline-2-carboxylate]	2.5 µM	196 to 198 °C	0.15 µM	IC50 ([1]; 10 μM PIP2, 10 μM ATP, HTRF, read-out: IC50 against PI3Kα): 25.3 µM; inhibition of other isoforms of PI3K (PI3Kα), in words ([1]; Table 2): does not inhibit; IC50 ([2]; 10 μM PIP2, 10 μM ATP, HTRF, read-out: IC50 against PI3Kβ): 8.54 µM; inhibition of other isoforms of PI3K (PI3Kβ), in words ([2]; Table 2): does not inhibit; IC50 [3]: 25.7 µM; inhibition of other isoforms of PI3K (PI3Kδ), in words ([3]; Table 2): does not inhibit; IC50 ([5]; 10 μM PIP2, 10 μM ATP, HTRF, read-out: IC50 against PI3Kγ): 1.01 µM; IC50 ([5]; Table 2, read-out: IC50 against PI3Kγ isoform): 1 µM; selective inhibition of the activity of PI3Kγ, in words ([5]; statement in description): selectively inhibits
COC(=O)c1sc2c(cnc3cc(F)c(F)cc32)c1N [Example 35, Methyl 3-amino-7,8-difluorothieno[3,2-c]quinoline-2-carboxylate]	10 µM	298 to 300 °C	10 µM	–
N#Cc1sc2c(cnc3ccc(F)cc32)c1N [Example 36, 3-Amino-8-fluorothieno[3,2-c]quinoline-2-carbonitrile]	75 µM	> 300 °C	75 µM	–
Nc1c(C(=O)c2ccc(F)cc2)sc2c1cnc1ccc(F)cc12 [Example 37, (3-Amino-8-fluorothieno[3,2-c]quinolin-2-yl)(4-fluorophenyl)methanone]	5 µM	276 to 278 °C	0.15 µM	–
O=c1cc(N2CCOCC2)oc2c(-c3ccccc3)cccc12 [LY294002, 2-(4-morpholinyl)-8-phenyl-chromone, reference compound]	–	–	–	IC50 [3]: 0.32 µM

Continued, in another order:

IC50 [4]	melting point	IC50 [6]	Structure (SMILES)	other results
25 µM	300 to 301 °C	25 µM	N#Cc1sc2c(cnc3cc(F)c(F)cc32)c1N [Example 38, 3-Amino-7,8-difluorothieno[3,2-c]quinoline-2-carbonitrile]	–
75 µM	> 320 °C	75 µM	Nc1c(C(=O)c2ccc(F)cc2)sc2c1cnc1cc(F)c(F)cc12 [Example 39, (3-Amino-7,8-difluorothieno[3,2-c]quinolin-2-yl)(4-fluorophenyl)methanone]	–
75 µM	258 to 260 °C	75 µM	COc1ccc(C(=O)c2sc3c(cnc4cc(F)c(F)cc43)c2N)cc1 [Example 40, (3-Amino-7,8-difluorothieno[3,2-c]quinolin-2-yl)(4-methoxyphenyl)methanone]	–
10 µM	256 to 258 °C	0.6 µM	COc1ccc(C(=O)c2sc3c(cnc4ccc(F)cc43)c2N)cc1 [Example 41, (3-Amino-8-fluorothieno[3,2-c]quinolin-2-yl)(4-methoxyphenyl)methanone]	–
